This is an account of results in patent US6083959A, “Quinoline derivatives, processes for their preparation and their use as medicaments” (Fujisawa Pharmaceutical Co., Ltd., priority 1996, dated 2000).

Where a name gives a salt, the structure may show the parent alone.

In this experiment the target is T1, Bradykinin Receptor (Cavia porcellus, UniProt O70526).
T1 construct: The ileum was removed and homogenized in buffer; from tissue; host or cells: guinea pig (male Hartley strain) ileum, crude membrane
T1 sequence (O70526 1-372): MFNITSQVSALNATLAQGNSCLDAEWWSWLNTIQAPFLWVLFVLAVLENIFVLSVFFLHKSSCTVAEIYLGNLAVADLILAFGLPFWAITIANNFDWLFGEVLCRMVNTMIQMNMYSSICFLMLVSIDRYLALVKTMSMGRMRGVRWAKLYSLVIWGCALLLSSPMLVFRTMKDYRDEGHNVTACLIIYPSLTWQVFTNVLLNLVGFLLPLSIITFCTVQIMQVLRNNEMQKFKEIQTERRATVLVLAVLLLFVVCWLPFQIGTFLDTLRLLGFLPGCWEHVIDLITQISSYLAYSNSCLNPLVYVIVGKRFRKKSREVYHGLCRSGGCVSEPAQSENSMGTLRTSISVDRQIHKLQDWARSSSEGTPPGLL
Put plainly: ^3 H-Bradykinin Receptor Binding (crude guinea pig ileum membrane). Particulars: ^3 H-Bradykinin 0.06 nM, room temperature, 60 minutes, read-out: Inhibition of ^3 H-Bradykinin binding IC50. The protocol:
^3 H-Bradykinin Receptor Binding
(a) Crude Ileum Membrane Preparation
Male Hartly strain guinea pigs were sacrificed by decapitation. The ileum was removed and homogenized in buffer (50 mM 2-[[tris(hydroxymethyl)methyl]amino]-1-ethanesulfonic acid (TES), 1 mM 1,10-phenanthroline pH 6.8). The homogenate was centrifuged (1000×g,20 minutes) to remove tissue clumps and the supernatant was centrifuges (100,000×g, 60 minutes) to yield a pellet. The pellet was resuspended in buffer (50 mM TES, 1 mM 1,10-phenanthroline, 140 mg/l bacitracin, 1 mM dithiothreiol, 0.1% bovine serum albumin pH 6.8) and homogenized with a glass-teflon homogenizer to yield suspension which was referred to as crude membrane suspension. The obtained membrane suspension was stored at -80° C. until use.
(b) ^3 H-Bradykinin Binding to the Membrane
The frozen crude membrane suspension was thawed. In binding assays, ^3 H-Bradykinin (0.06 nM) and drug were incubated with 50 μl of the membrane suspension at room temperature for 60 minutes in a final volume of 250 μl. Separation of receptor-bound from free ^3 H-Bradykinin is achieved by immediate filtration under vacuum and washed three times with 5 ml of ice-cold buffer (50 mM Tris-HCl pH 7.5). Non-specific binding was defined as binding in the presence of 0.1 μM Bradykinin. The radioactivity retained on rinsed filters was determined by a liquid-scintillation counter.
By IC50 is commonly meant the point on the concentration scale where inhibition reaches its midpoint. Regarding `Cc1cc(-n2ccnc2)c2cccc(OCc3c(Cl)ccc(N(C)C(=O)CNC(=O)C=Cc4ccc(C(=O)NCc5ccccn5)cc4)c3Cl)c2n1` [2-(3) (trihydrochloride), 8-[2,6-Dichloro-3-[N-methyl-N-[4-[N-(2-pyridylmethyl)carbamoyl]cinnamoylglycyl]amino]benzyloxy]-4-(imidazol-1-yl)-2-methylquinoline], the IC50 came out at 4.5 nM.
For `CCOC(=O)c1ccc(C=CC(=O)NCC(=O)N(C)c2ccc(Cl)c(COc3cccc4c(-n5ccnc5)cc(C)nc34)c2Cl)cc1` [17-(1), 8-[2,6-Dichloro-3-[N-(4-ethoxycarbonylcinnamoylglycyl)-N-methylamino]benzyloxy]-4-(imidazol-1-yl)-2-methylquinoline] the value was 3.9 nM.
`Cc1cc(-n2cccn2)c2cccc(OCc3c(Cl)ccc(N(C)C(=O)CNC(=O)C=Cc4ccc(C(=O)N(C)C)cc4)c3Cl)c2n1` [11-(4) (dihydrochloride), 8-[2,6-Dichloro-3-[N-methyl-N-[4-(dimethylcarbamoyl)cinnamoylglycyl]amino]benzyloxy]-2-methyl-4-(pyrazol-1-yl)quinoline]: the IC50 stood at 3.3 nM.
The figure for `Cc1cc(-n2cncn2)c2cccc(OCc3c(Cl)ccc(N(C)C(=O)CNC(=O)C=Cc4ccc(C(=O)N(C)C)cc4)c3Cl)c2n1` [12 (dihydrochloride), 8-[2,6-Dichloro-3-[N-methyl-N-[4-(dimethylcarbamoyl)cinnamoylglycyl]amino]benzyloxy]-2-methyl-4-(1,2,4-triazol-1-yl)quinoline] is 9.1 nM; for `Cc1cc(-n2ccnc2)c2cccc(OCc3c(Cl)ccc(N(C)C(=O)CNC(=O)Nc4cccc(C(=O)Nc5ccncc5)c4)c3Cl)c2n1` [3 (trihydrochloride), 8-[2,6-dichloro-3-[N-methyl-N-[N'-[3-[N-(4-pyridyl)carbamoyl]phenyl]ureidoacetyl]amino]benzyloxy]-4-(imidazol-1-yl)-2-methylquinoline] it is 6.6 nM.
